In patent US8088410B2, “25-hydroxy Vitamin D3 compositions” (DSM IP Assets B.V., priority 2002, dated 2012):

Assay: Premix stability: percent retention of 25-hydroxy Vitamin D3 in stored feed premixes (Example 7)
Assay type: physicochemical
Details: Basic and Vitamin Premixes, stored at 25° C. and 35° C. up to 3 months (FIGS. 6 and 7)
Experimental: Three premixes for use in animal feed were prepared having the following components in the following proportions by percent weight based on the total weight of the premix.
Each of these premix compositions was prepared using a microencapsulated oil of the present invention or a prior art beadlet containing 25-hydroxy Vitamin D3. In addition, a control formulation was prepared, in which Vitamin D3 was substituted for the 25-hydroxy Vitamin D3. Each of the premixes was stored at 25° C. and 35° C., for a length of time up to 3 months. The percent retention of the 25-hydroxy Vitamin D3 was determined at each time and temperature.

- stability of 25-hydroxy Vitamin D3 (% retention) in premix: less than that of Vitamin D3
Compound: C=C1CCC(O)C/C1=C/C=C1\CCCC2(C)C1CCC2C(C)CCCC(C)(C)O (stereo not shown) [25-hydroxy Vitamin D3]
